Target: NaV1.3 (Homo sapiens, UniProt Q9NY46)
Test: VIPR optical membrane potential assay, NaV1.3 inhibition
Type: cell-based
Set-up: expressed in transfected cells; host or cells: HEK293
Conditions: activity against NaV 1.3 channel
Protocol: Antagonist properties of test compounds were assessed as follows. Cells expressing the NaV of interest were placed into microtiter plates. After an incubation period, the cells were stained with fluorescent dyes sensitive to the transmembrane potential. The test compounds were added to the microtiter plate. The cells were stimulated with either a chemical or electrical means to evoke a NaV dependent membrane potential change from unblocked channels, which was detected and measured with trans-membrane potential-sensitive dyes. Antagonists were detected as a decreased membrane potential response to the stimulus.
The following is an example of how NaV1.3 inhibition activity is measured using the optical membrane potential method#2. Other subtypes are performed in an analogous mode in a cell line expressing the NaV of interest.
HEK293 cells stably expressing NaV1.3 are plated into 96-well microtiter plates. After an appropriate incubation period, the cells are stained with the voltage sensitive dyes CC2-DMPE/DiSBAC2(3) as follows.
2× CC2-DMPE=20 μM CC2-DMPE: 10 mM CC2-DMPE is vortexed with an equivalent volume of 10% pluronic, followed by vortexing in required amount of HBSS containing 10 mM HEPES. Each cell plate will require 5 mL of 2× CC2-DMPE. 50 μL of 2× CC2-DMPE is to wells containing washed cells, resulting in a 10 μM final staining concentration. The cells are stained for 30 minutes in the dark at RT.
2× DISBAC2(3) with ABSC1=6 μM DISBAC2(3) and 1 mM ABSC1: The required amount of 10 mM DISBAC2(3) is added to a 50 ml conical tube and mixed with 1 μL 10% pluronic for each mL of solution to be made and vortexed together. Then HBSS/HEPES is added to make up 2× solution. Finally, the ABSC1 is added.
The 2× DiSBAC2(3) solution can be used to solvate compound plates. Note that compound plates are made at 2× drug concentration. Wash stained plate again, leaving residual volume of 50 μL. Add 50 μL/well of the 2× DiSBAC2(3) w/ABSC1. Stain for 30 minutes in the dark at RT.
The instrument comprises a microtiter plate handler, an optical system for exciting the coumarin dye while simultaneously recording the coumarin and oxonol emissions, a waveform generator, a current- or voltage-controlled amplifier, and a device for inserting electrodes in well. Under integrated computer control, this instrument passes user-programmed electrical stimulus protocols to cells within the wells of the microfilter plate.
Insert or use electrodes into each well to be assayed.
Use the current-controlled amplifier to deliver stimulation wave pulses for 3 s. Two seconds of pre-stimulus recording are performed to obtain the un-stimulated intensities. Five seconds of post-stimulation recording are performed to examine the relaxation to the resting state.
Data are analyzed and reported as normalized ratios of background-subtracted emission intensities measured in the 460 nm and 580 nm channels. Background intensities are then subtracted from each assay channel. Background intensities are obtained by measuring the emission intensities during the same time periods from identically treated assay wells in which there are no cells. The response as a function of time is then reported as the ratios obtained using the following formula: […]
The data is further reduced by calculating the initial (Ri) and final (Rf) ratios. These are the average ratio values during part or all of the pre-stimulation period, and during sample points during the stimulation period. The response to the stimulus ? =Rf/Ri is then calculated.
Control responses are obtained by performing assays in the presence of a compound with the desired properties (positive control), such as tetracaine, and in the absence of pharmacological agents (negative control). Responses to the negative (N) and positive (P) controls are calculated as above. The compound antagonist activity A is defined as:
[formula] where R is the ratio response of the test compound.

NaV1.3, sequence (Q9NY46 whole entry): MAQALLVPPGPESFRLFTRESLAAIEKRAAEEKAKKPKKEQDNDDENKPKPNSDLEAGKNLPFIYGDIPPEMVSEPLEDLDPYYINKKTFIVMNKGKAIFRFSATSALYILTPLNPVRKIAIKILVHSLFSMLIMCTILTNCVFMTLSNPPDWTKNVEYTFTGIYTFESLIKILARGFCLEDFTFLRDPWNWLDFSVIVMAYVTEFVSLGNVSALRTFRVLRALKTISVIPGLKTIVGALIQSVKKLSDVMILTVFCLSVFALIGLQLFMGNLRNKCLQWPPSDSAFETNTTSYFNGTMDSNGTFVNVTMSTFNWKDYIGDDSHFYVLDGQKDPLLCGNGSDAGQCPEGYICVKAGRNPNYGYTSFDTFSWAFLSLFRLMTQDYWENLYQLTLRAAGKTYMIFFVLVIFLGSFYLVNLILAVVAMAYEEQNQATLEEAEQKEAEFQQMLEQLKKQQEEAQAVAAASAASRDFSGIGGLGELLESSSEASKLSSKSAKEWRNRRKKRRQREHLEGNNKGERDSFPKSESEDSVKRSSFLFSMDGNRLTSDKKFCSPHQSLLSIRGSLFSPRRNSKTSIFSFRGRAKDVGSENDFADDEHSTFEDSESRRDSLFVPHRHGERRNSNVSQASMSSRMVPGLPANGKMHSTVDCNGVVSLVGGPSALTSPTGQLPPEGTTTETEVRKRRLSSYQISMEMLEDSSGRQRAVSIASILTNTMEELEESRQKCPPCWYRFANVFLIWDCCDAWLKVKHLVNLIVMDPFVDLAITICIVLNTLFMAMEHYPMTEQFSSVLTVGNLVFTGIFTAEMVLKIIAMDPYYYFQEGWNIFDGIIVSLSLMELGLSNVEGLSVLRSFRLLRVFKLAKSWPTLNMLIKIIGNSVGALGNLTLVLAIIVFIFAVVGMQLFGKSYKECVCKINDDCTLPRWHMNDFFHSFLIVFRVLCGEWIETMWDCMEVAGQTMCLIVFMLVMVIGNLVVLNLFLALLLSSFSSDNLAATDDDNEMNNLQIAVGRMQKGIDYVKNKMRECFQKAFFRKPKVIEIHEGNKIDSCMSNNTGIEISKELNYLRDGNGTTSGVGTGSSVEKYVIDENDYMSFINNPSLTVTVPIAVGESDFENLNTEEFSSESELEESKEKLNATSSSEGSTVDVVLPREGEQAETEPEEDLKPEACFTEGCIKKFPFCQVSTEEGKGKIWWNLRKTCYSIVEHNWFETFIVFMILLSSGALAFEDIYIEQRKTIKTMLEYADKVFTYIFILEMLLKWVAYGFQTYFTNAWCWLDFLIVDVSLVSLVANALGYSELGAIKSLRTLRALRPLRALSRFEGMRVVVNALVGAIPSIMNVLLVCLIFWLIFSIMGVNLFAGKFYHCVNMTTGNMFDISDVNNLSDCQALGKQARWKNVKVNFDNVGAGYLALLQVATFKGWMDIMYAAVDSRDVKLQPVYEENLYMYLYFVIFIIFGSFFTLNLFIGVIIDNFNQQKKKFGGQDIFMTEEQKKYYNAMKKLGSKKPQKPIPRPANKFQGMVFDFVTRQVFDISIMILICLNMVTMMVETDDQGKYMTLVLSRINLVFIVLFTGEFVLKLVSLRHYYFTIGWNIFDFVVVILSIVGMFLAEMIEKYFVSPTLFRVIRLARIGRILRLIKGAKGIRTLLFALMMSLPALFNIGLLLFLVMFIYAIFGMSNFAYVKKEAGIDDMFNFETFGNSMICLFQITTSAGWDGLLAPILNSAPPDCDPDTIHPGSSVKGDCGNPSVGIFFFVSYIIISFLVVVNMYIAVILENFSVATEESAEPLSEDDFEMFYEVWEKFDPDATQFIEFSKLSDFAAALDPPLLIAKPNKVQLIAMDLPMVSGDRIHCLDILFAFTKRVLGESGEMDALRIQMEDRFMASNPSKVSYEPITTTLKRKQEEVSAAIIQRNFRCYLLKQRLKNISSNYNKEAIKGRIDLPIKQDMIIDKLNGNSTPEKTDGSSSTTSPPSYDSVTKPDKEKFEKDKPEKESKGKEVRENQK

| IC50 [nM] | SMILES |
| --- | --- |
| < 2000 | C[C@H](C(=O)N1CCc2cc(S(=O)(=O)Nc3nccs3)ccc21)n1ccc2ccccc21 [Compound 20] |
| < 2000 | CC(Oc1cc(Cl)ccc1Cl)C(=O)N1CCc2cc(S(=O)(=O)Nc3nccs3)ccc21 (stereo not drawn) [Compound 21] |
| > 5000 | O=S(=O)(Nc1nccs1)c1ccc2c(c1)CCN2CCNc1cnc2ccccc2c1 [Compound 22] |
| > 5000 | O=C(COc1ccc(Cl)cc1)N1CCc2ccc(S(=O)(=O)Nc3nccs3)cc2C1 [Compound 23] |
| > 5000 | O=C(CNCc1ccccc1)N1CCc2cc(S(=O)(=O)Nc3nccs3)ccc21 [Compound 24] |
| > 5000 | Cc1ccc(OCC(=O)N2CCc3ccc(S(=O)(=O)Nc4nccs4)cc3C2)cc1 [Compound 25] |
| < 2000 | Cc1ccc(CC(=O)N2CCc3cc(S(=O)(=O)Nc4nccs4)ccc32)cc1 [Compound 26] |
| < 2000 | O=C(COc1ccc(F)c(Cl)c1)N1Cc2ccc(S(=O)(=O)Nc3nccs3)cc2C1 [Compound 27] |
| > 5000 | CN(CC(=O)N1CCc2cc(S(=O)(=O)Nc3nccs3)ccc21)c1ccncc1 [Compound 29] |
| < 2000 | O=C(COc1ccc(F)c(Cl)c1)N1CCc2cc(S(=O)(=O)Nc3nccs3)ccc21 [Compound 30] |
| < 2000 | COc1cccc(CC(=O)N2CCc3cc(S(=O)(=O)Nc4ncns4)ccc32)c1 [Compound 31] |
| < 2000 | O=C(CCCOc1ccc(Cl)c(Cl)c1)N1Cc2ccc(S(=O)(=O)Nc3ncns3)cc2C1 [Compound 32] |
| < 2000 | O=C(CCCOc1ccc(Cl)cc1Cl)N1CCc2cc(S(=O)(=O)Nc3ncns3)ccc21 [Compound 33] |
| > 5000 | O=C(c1ccccc1F)N1CCc2cc(S(=O)(=O)Nc3ncns3)ccc21 [Compound 34] |

The next lines start with the compound.

| SMILES | IC50 [nM] |
| --- | --- |
| Cc1cccc(OCC(=O)N2CCc3cc(S(=O)(=O)Nc4nccs4)ccc32)c1 [Compound 1] | < 2000 |
| O=C(COc1ccccc1Cl)N1CCc2cc(S(=O)(=O)Nc3nccs3)ccc21 [Compound 2] | < 2000 |
| O=C(c1ccc(F)cc1)N1Cc2ccc(S(=O)(=O)Nc3nccs3)cc2C1 [Compound 3] | 2000 to 5000 |
| Cc1ccc(F)c(C(=O)N2CCc3cc(S(=O)(=O)Nc4nccs4)ccc32)c1 [Compound 4] | > 5000 |
| COc1ccc(CC(=O)N2CCc3cc(S(=O)(=O)Nc4nccs4)ccc32)cc1 [Compound 5] | < 2000 |
| O=C(c1ccc(F)c(F)c1F)N1CCc2cc(S(=O)(=O)Nc3ncns3)ccc21 [Compound 6] | 2000 to 5000 |
| Cc1ccc(C(=O)N2CCc3cc(S(=O)(=O)Nc4nccs4)ccc32)cc1 [Compound 7] | 2000 to 5000 |
| CC(Oc1ccccc1)C(=O)N1CCc2ccc(S(=O)(=O)Nc3nccs3)cc2C1 (stereo not drawn) [Compound 8] | > 5000 |
| CC(C)(Oc1ccc(Cl)cc1)C(=O)N1CCc2cc(S(=O)(=O)Nc3nccs3)ccc21 [Compound 9] | < 2000 |
| COc1ccccc1CC(=O)N1CCc2cc(S(=O)(=O)Nc3nccs3)ccc21 [Compound 10] | 2000 to 5000 |
| O=C(COc1cccc(Cl)c1)N1Cc2ccc(S(=O)(=O)Nc3nccs3)cc2C1 [Compound 11] | < 2000 |
| O=C(COc1ccccc1)N1CCc2ccc(S(=O)(=O)Nc3nccs3)cc2C1 [Compound 12] | > 5000 |
| O=C(COc1ccc(F)c(Cl)c1)N1CCc2cc(S(=O)(=O)Nc3ncns3)ccc21 [Compound 13] | < 2000 |
| O=C(COc1ccc(F)cc1)N1CCc2cc(S(=O)(=O)Nc3nccs3)ccc21 [Compound 14] | < 2000 |
| O=C(CN1CCc2ccccc2C1)N1CCCc2cc(S(=O)(=O)Nc3nccs3)ccc21 [Compound 15] | 2000 to 5000 |
| Cc1ccc(OCC(=O)N2CCc3ccc(S(=O)(=O)Nc4nccs4)cc3C2)c(C)c1 [Compound 16] | < 2000 |
| CC(C(=O)N1Cc2ccc(S(=O)(=O)Nc3nccs3)cc2C1)n1ccc2ccccc21 (stereo not drawn) [Compound 17] | < 2000 |
| COc1cccc(CCC(=O)n2ccc3cc(S(=O)(=O)Nc4nccs4)ccc32)c1 [Compound 18] | < 2000 |
| O=C(COc1ccc(Cl)c(Cl)c1)n1ccc2cc(S(=O)(=O)Nc3nccs3)ccc21 [Compound 19] | > 5000 |

Source: patent publication US7786137B2, “Bicyclic derivatives as modulators of ion channels” (Vertex Pharmaceuticals Incorporated, priority 2005, dated 2010)
